Patent publication US20230051589A1, “COMPOUNDS AND COMPOSITIONS FOR TREATING CONDITIONS ASSOCIATED WITH NLRP ACTIVITY” (Novartis AG, priority 2018, published 2023)

Test system: IL-1β production in PMA-differentiated THP-1 cells
Assay: IL-1β production in PMA-differentiated THP-1 cells stimulated with gramicidin (hTHP-1 assay, 2% fetal bovine serum; Procedures 1-3)
Format: cell-based, human
Settings: Homo sapiens, THP-1, Table B1; hTHP-1 assay containing 2% fetal bovine serum, gramicidin stimulation, IL-1β readout; read-out: hTHP-1 IC50 (average)
Outline: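 IL-1β released into supernatants was read by HTRF after 2 h gramicidin (5 μM) challenge. Before challenge, compounds (3-fold dilutions, top 100 μM, 0.37% DMSO) were given 1 h on THP-1 cells differentiated with PMA (20 ng/ml, 16-18 h) and held in 2% FBS medium.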

CC(O)(CO)c1cc(F)c(S(N)(=O)=NC(=O)Nc2c3c(c(C#N)c4c2CCC4)CCC3)s1 (stereo not drawn) [Compound 411] was tested, and the IC50 was 40 to 200 nM.

Same assay, conditions: Homo sapiens, THP-1, Table B3; hTHP-1 assay containing 2% fetal bovine serum, gramicidin stimulation, IL-1β readout; read-out: hTHP-1 IC50

First: C[C@@](O)(CO)c1ncc(S(N)(=O)=NC(=O)Nc2c3c(cc4c2CC4)CCC3)s1 (stereo partly drawn) [Example 742, 2-((R)-1,2-dihydroxypropan-2-yl)-N′-((2,4,5,6-tetrahydro-1H-cyclobuta[f]inden-3-yl)carbamoyl)thiazole-5-sulfonimidamide]
Second: C[C@](O)(COCCO)c1ccc([S@](N)(=O)=NC(=O)Nc2c3c(cc4c2CCC4)CCC3)s1 [Example 749, (R)-N′-((1,2,3,5,6,7-hexahydro-s-indacen-4-yl)carbamoyl)-5-((S)-2-hydroxy-1-(2-hydroxyethoxy)propan-2-yl)thiophene-2-sulfonimidamide]
The IC50 of the first is lower: 8 to 40 nM for the first, 200 to 1000 nM for the second.

First: CC(C)n1nc(S(N)(=O)=NC(=O)Nc2c3c(cc4c2C(=O)CC4)CCC3)cc1CO (stereo not drawn) [compound 739, 5-(Hydroxymethyl)-1-isopropyl-N′-((3-oxo-1,2,3,5,6,7-hexahydro-s-indacen-4-yl)carbamoyl)-1H-pyrazole-3-sulfonimidamide]
Second: CN1CCc2sc(S(N)(=O)=NC(=O)Nc3c4c(cc5c3CC5)CCC4)c(F)c2C1 (stereo not drawn) [Example 769, 3-Fluoro-5-methyl-N′-((2,4,5,6-tetrahydro-1H-cyclobuta[f]inden-3-yl)carbamoyl)-4,5,6,7-tetrahydrothieno[3,2-c]pyridine-2-sulfonimidamide]
The IC50 of the first is higher: 1000 to 5000 nM for the first, 40 to 200 nM for the second.

Same assay, conditions: Homo sapiens, THP-1, hTHP-1 assay containing 2% fetal bovine serum, Table B2, class symbols; read-out: IC50

First: N#Cc1c2c(c(NC(=O)N=S(N)(=O)c3cnc(C(O)(CO)CO)s3)c3c1CCC3)CCC2 (stereo not drawn) [Example 678, N′-((8-cyano-1,2,3,5,6,7-hexahydro-s-indacen-4-yl)carbamoyl)-2-(1,2,3-trihydroxypropan-2-yl)thiazole-5-sulfonimidamide]
Second: CC(C)(O)c1cncc(S(N)(=O)=NC(=O)Nc2c3c(c(C#N)c4c2CCC4)CCC3)c1 (stereo not drawn) [Example 461, N′-((8-cyano-1,2,3,5,6,7-hexahydro-s-indacen-4-yl)carbamoyl)-5-(2-hydroxypropan-2-yl)pyridine-3-sulfomidamide]
The IC50 of the first is higher: 5000 to 30000 nM for the first, 200 to 1000 nM for the second.

First: CC(C)N(C)c1ccc(S(N)(=O)=NC(=O)Nc2c3c(cc4c2CCC4)CCC3)cc1 (single isomer, unassigned) [Example 615, (R) or (S)-N′-((1,2,3,5,6,7-hexahydro-s-indacen-4-yl)carbamoyl)-4-(isopropyl(methyl)amino) benzenesulfonimidamide]
Second: CN(C)C(CF)c1ccc(S(N)(=O)=NC(=O)Nc2c3c(cc4c2CCC4)CCC3)cc1 (stereo not drawn) [Example 480, 4-(1-(Dimethylamino)-2-fluoroethyl)-N′-((1,2,3,5,6,7-hexahydro-s-indacen-4-yl)carbamoyl)benzenesulfonimidamide]
The IC50 of the first is higher: 5000 to 30000 nM for the first, 1000 to 5000 nM for the second. The second is the more potent here.

First: C=CCc1c2c(c(NC(=O)N=S(N)(=O)c3cc(C(C)(C)O)n(-c4ccccc4)n3)c3c1CCC3)CCC2 (stereo not drawn) [Example 458, N′-((8-allyl-1,2,3,5,6,7-hexahydro-s-indacen-4-yl)carbamoyl)-5-(2-hydroxypropan-2-yl)-1-phenyl-1H-pyrazole-3-sulfonimidamide]
Second: N[S@](=O)(=NC(=O)Nc1c2c(cc3c1CCC3)CCC2)c1ccc([C@@H]2CCN2)cc1 [Compound 802c]
The IC50 of the first is lower: 1000 to 5000 nM for the first, 5000 to 30000 nM for the second.

N[S@@](=O)(=NC(=O)Nc1c2c(cc3c1CCC3)CCC2)c1ccc([C@H]2CCCN2)s1 [Compound 921a] showed an IC50 of 5000 to 30000 nM.

Same assay, conditions: Table B1; hTHP-1 assay containing 2% fetal bovine serum, gramicidin stimulation, IL-1β readout; read-out: hTHP-1 IC50 (average)

First: CC(C)(O)c1ncc(S(N)(=O)=NC(=O)Nc2c3c(cc4c2CCC4O)CCC3)s1 (single isomer, unassigned) [Example 338, (R, S) or (R, R)-N′-((1-hydroxy-1,2,3,5,6,7-hexa-hydro-s-indacen-4-yl)-carbamoyl)-2-(2-hydroxy-propan-2-yl)thiazole-5-sulfonimidamide]
Second: CC(C)n1ccc(S(N)(=O)=NC(=O)Nc2c3c(cc4c2CCC4)CCC3)n1 (single isomer, unassigned) [Example 93]
The IC50 of the first is higher: 1000 to 5000 nM for the first, 40 to 200 nM for the second.

In the case of C#CCCC(=O)N(C)Cc1ccc(S(N)(=O)=NC(=O)Nc2c3c(cc4c2CCC4)CCC3)cc1 (single isomer, unassigned) [Example 313, (R) or (S)-N-(4-(N′-((1,2,3,5,6,7-hexahydro-s-indacen-4-yl)carbamoyl)-sulfamidimidoyl)benzyl)-N-methylpent-4-ynamide], the IC50 is reported as 1000 to 5000 nM.

Same assay, conditions: Table B3; hTHP-1 assay containing 2% fetal bovine serum, gramicidin stimulation, IL-1β readout; read-out: hTHP-1 IC50

First: CC(C)(O)c1ccc(S(N)(=O)=NC(=O)Nc2c3c(cc4c2C(=O)CC4)CCC3)cn1 (single isomer, unassigned) [Example 832, (R) or (S)-6-(2-hydroxypropan-2-yl)-N′-((3-oxo-1,2,3,5,6,7-hexahydro-s-indacen-4-yl)carbamoyl)pyridine-3-sulfonimidamide]
Second: CC(C)c1cnc(S(N)(=O)=NC(=O)Nc2c3c(cc4c2CCC4)CCC3)c(F)c1 (single isomer, unassigned) [Example 812, (S) or (R)-3-fluoro-N′-((1,2,3,5,6,7-hexahydro-s-indacen-4-yl)carbamoyl)-5-isopropylpyridine-2-sulfonimidamide]
The IC50 of the first is lower: 200 to 1000 nM for the first, 5000 to 30000 nM for the second. The first is the more potent here.

First: CC(C)(CO)c1ncc(S(N)(=O)=NC(=O)Nc2c3c(c(C#N)c4c2CCC4)CCC3)s1 (single isomer, unassigned) [Example 830, (R) or (S)-N′-((8-cyano-1,2,3,5,6,7-hexahydro-s-indacen-4-yl)carbamoyl)-2-(1-hydroxy-2-methylpropan-2-yl)thiazole-5-sulfonimidamide]
Second: CNCc1csc(S(N)(=O)=NC(=O)Nc2c3c(cc4c2CC4)CCC3)c1 (single isomer, unassigned) [Example 838, (S) or (R)-4-((methylamino)methyl)-N′-((2,4,5,6-tetrahydro-1H-cyclobuta[f]inden-3-yl)carbamoyl)thiophene-2-sulfonimidamide]
The IC50 of the first is lower: 40 to 200 nM for the first, 200 to 1000 nM for the second. The first is the more potent here.

Compared with COC1CCc2csc(S(N)(=O)=NC(=O)Nc3c4c(cc5c3CCC5)CCC4)c2C1 (single isomer, unassigned) [Example 855, (R, S) or (S, S)-N′-((1,2,3,5,6,7-hexahydro-s-indacen-4-yl)carbamoyl)-6-methoxy-4,5,6,7-tetrahydrobenzo[c]thiophene-1-sulfonimidamide], NS(=O)(=NC(=O)Nc1c2c(cc3c1CC3)CCC2)c1nn(C(F)F)cc1F (single isomer, unassigned) [Example 839, (R) or (S)-1-(difluoromethyl)-4-fluoro-N′-((2,4,5,6-tetrahydro-1H-cyclobuta[f]inden-3-yl)carbamoyl)-1H-pyrazole-3-sulfonimidamide] is lower in IC50: over 30000 nM for the first, 40 to 200 nM for the second.

Same assay, conditions: hTHP-1 assay containing 2% fetal bovine serum, Table B2, class symbols; read-out: IC50

Compared with N=S(=O)(NC(=O)Nc1c2c(cc3c1CCC3)CCC2)c1nn(C(F)F)cc1F (single isomer, unassigned) [Example 711], CN(C)Cc1cnc(S(N)(=O)=NC(=O)Nc2c3c(cc4c2CCC4)CCC3)c(F)c1 (single isomer, unassigned) [Example 517, (S) or (R)-5-((dimethylamino)methyl)-3-fluoro-N′-((1,2,3,5,6,7-hexahydro-s-indacen-4-yl)carbamoyl)pyridine-2-sulfonimidamide] is higher in IC50: 1000 to 5000 nM for the first, 5000 to 30000 nM for the second.

CC(C)(O)c1csc(S(N)(=O)=NC(=O)Nc2c3c(cc4c2CCC4=O)CCC3)c1 (single isomer, unassigned) [Example 598, (R) or (S)-4-(2-hydroxypropan-2-yl)-N′-((1-oxo-1,2,3,5,6,7-hexahydro-s-indacen-4-yl)carbamoyl) thiophene-2-sulfonimidamide] gave an IC50 of 200 to 1000 nM.
